According to patent publication US11987645B2, “Peptide for treating rheumatoid arthritis and use thereof” (SEOUL NATIONAL UNIVERSITY R&DB FOUNDATION, priority 2018, dated 2024):
Blank lines part the entries; values can stand above or below the substance they belong to.

Columns and labels:
[1] = tested on: peripheral blood mononuclear cells obtained from rheumatoid arthritis patients; experiment: Inflammatory cytokine secretion after treating peripheral blood mononuclear cells of rheumatoid arthritis patients with apoB100-derived peptides #1 to #5; type: cell-based, human; settings: PBMC of rheumatoid arthritis patients; control non-binding peptide (NBP); FIG. 8
Experimental: Thereafter, peripheral blood mononuclear cells obtained from the healthy control and rheumatoid arthritis patients were treated with the peptides #1 to #5 (which are named apoB100 #1, apo100 #2, apoB100 #3, apoB100 #4, and apoB100 #5, respectively), and changes in the secretion of IL-1β, IL-6 and TNF-α were compared. Meanwhile, a non-binding peptide treated group (NBP) was determined as the control group, and the results of this example are indicated as the mean values of the secretion levels for each six of rheumatoid arthritis patients and healthy individuals.

[2] = tested on: peripheral blood cells derived from rheumatoid arthritis patients; experiment: Example 3-1: inflammatory cytokine secretion in peripheral blood cells derived from rheumatoid arthritis patients; type: cell-based, human; settings: FIG. 10; for secretion level of IL-1β / secretion level of IL-6 / secretion level of TNF-α: peripheral blood cells of rheumatoid arthritis patients, control NBP
Experimental: After peripheral blood cells derived from rheumatoid arthritis patients were treated with apoB100 #1, apoB100 #3, and apoB100 #5, changes in the secretion of IL-1β, IL-6 and TNF-α were identified. A non-binding peptide treated group (NBP) was determined as the control group.

[3] = tested on: K/B×N rheumatoid arthritis animal model; experiment: Example 3-2: K/B×N rheumatoid arthritis animal model (K/B×N serum transfer arthritis mouse); type: in vivo; settings: subcutaneous injection to the affected region; K/B×N serum and apoB induced; FIG. 11
From the text: K/B×N rheumatoid arthritis animal model (K/B×N serum transfer arthritis mouse) was established by inducing moderate rheumatoid arthritis by administering K/B×N serum and apoB to the mouse, and peptides for inhibiting the secretion of inflammatory cytokine were subcutaneously injected to the affected region of the animal model. Afterwards, changes in the ankle thickness and arthritis score resulting after peptide injection were identified. In addition, under the same conditions as described above, changes in the synovial inflammation, bone erosion, cartilage damage and leukocyte infiltration were compared. Meanwhile, groups treated with K/B×N serum and apoB only were determined as control groups, and groups treated with K/B×N serum and apoB, and a non-binding peptide treated group (NBP) were determined as comparison groups.

[4] = tested on: peripheral blood mononuclear cells isolated from rheumatoid arthritis patients; experiment: Inflammatory cytokine secretion after treating peripheral blood mononuclear cells of rheumatoid arthritis patients with apoB100; type: cell-based, human
From the text: In this example, in order to identify the relation between rheumatoid arthritis and ENO1 expression on peripheral blood mononuclear cells, the ENO1 expression thereof was observed. In addition, it was attempted to identify the effect of binding ENO1 (α-enolase) to apolipoprotein B100 (apoB100) isolated from a rheumatoid arthritis patient and selected as an ENO1 (α-enolase) binding ligand on the secretion of inflammatory cytokine in the peripheral blood of the rheumatoid arthritis patient through proteomic analysis using immunoprecipitation (IP)/mass spectroscopy (MS). In detail, after ENO1 immunoblotting was performed on mononuclear cells obtained from the rheumatoid arthritis patient and peripheral blood mononuclear cells were treated with apoB100, changes in the secretion of IL-1β, IL-6 and TNF-α were compared. Meanwhile, a group in which cells isolated from healthy individuals are used (HC: healthy control) was determined as the control group.
Accordingly, in this example, it was additionally verified whether the binding of ENO1 and apoB100 crucially affected inflammation responses due to rheumatoid arthritis. […] In addition, since LDL existing in vivo in a state in which it binds to apoB100 protein may potentially involve the inflammation responses, LDLR knockout mouse and C57BL/6 wild-type mouse control group were treated with the serum of K/B×N mouse (referred to as K/B×N serum, hereinafter) and ApoB100, and resulting changes in vivo were compared. Meanwhile, addition of K/B×N mouse serum functions to induce rheumatoid arthritis through deposition of autoantibodies existing in the K/B×N serum, and is one of conventional techniques for manufacturing rheumatoid arthritis animal models by autoimmune responses.

ENO1 (α-enolase) = ENO1 (α-enolase) (Homo sapiens, UniProt P06733); experiment: ENO1-apoB100 binding by immunoblotting, confocal microscopy, BIACORE system and ELISA assay; settings: ELISA, FIG. 3
[5] = RA patient mononuclear cells treated with apoB100, compared to healthy control group, FIG. 2

ENO1 (α-enolase), sequence (P06733 whole entry): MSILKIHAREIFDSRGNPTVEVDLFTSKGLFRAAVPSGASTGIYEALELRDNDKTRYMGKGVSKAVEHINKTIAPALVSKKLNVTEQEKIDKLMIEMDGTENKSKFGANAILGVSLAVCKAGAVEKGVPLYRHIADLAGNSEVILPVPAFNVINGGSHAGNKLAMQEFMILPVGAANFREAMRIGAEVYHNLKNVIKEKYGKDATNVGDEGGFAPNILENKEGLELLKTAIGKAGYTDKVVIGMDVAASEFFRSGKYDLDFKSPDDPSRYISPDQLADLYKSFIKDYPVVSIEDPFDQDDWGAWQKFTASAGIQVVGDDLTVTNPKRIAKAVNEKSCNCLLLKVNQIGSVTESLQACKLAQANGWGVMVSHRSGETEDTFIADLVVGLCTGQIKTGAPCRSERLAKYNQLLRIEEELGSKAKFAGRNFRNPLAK

Substance: AICKEQHLFLPF (peptide #1) [apoB100 #1]
- secretion level of IL-1β [1]: decreased
- secretion level of IL-6 [1]: decreased
- secretion level of TNF-α [1]: decreased
- secretion level of IL-1β [2]: significantly decreased
- secretion level of IL-6 [2]: significantly decreased
- secretion level of TNF-α [2]: significantly decreased
- ankle thickness [3]: significantly decreased
- arthritis score [3]: significantly decreased

Substance: CKEQHLFLPFSY (peptide #2) [apoB100 #2]
- secretion level of IL-1β [1]: markedly increased
- secretion level of IL-6 [1]: markedly increased
- secretion level of TNF-α [1]: markedly increased

Substance: KNKYGMVAQVTQ (peptide #4) [apoB100 #4]
- secretion level of IL-1β [1]: markedly increased
- secretion level of IL-6 [1]: markedly increased
- secretion level of TNF-α [1]: markedly increased

Substance: SYKNKYGMVAQV (peptide #3) [apoB100 #3]
- secretion level of IL-1β [1]: decreased
- secretion level of IL-6 [1]: decreased
- secretion level of TNF-α [1]: decreased
- treatment efficacy (decrease of cytokine secretion) compared among the peptides ([2]; among apoB100 #1, #3 and #5): highest
- secretion level of IL-1β [2]: significantly decreased
- secretion level of IL-6 [2]: significantly decreased
- secretion level of TNF-α [2]: significantly decreased
- ankle thickness [3]: significantly decreased
- arthritis score [3]: significantly decreased

Substance: TKKMGLAFESTK (peptide #5) [apoB100 #5]
- secretion level of IL-1β [1]: decreased
- secretion level of IL-6 [1]: decreased
- secretion level of TNF-α [1]: decreased
- secretion level of IL-1β [2]: significantly decreased
- secretion level of IL-6 [2]: significantly decreased
- secretion level of TNF-α [2]: significantly decreased
- ankle thickness [3]: significantly decreased
- arthritis score [3]: significantly decreased

- ENO1-apoB100 binding (ENO1 (α-enolase)): relatively strong binding
Substance: apolipoprotein B100 [apoB100]
- secretion level of inflammatory cytokines ([4]; ENO1 expression of PBMC inhibited with ENO1 siRNA, then apoB100 treatment, FIG. 4): an increased secretion level of inflammatory cytokines was not observed
- secretion level of IL-1β [4, 5]: markedly increased
- secretion level of IL-6 [4, 5]: markedly increased
- secretion level of TNF-α [4, 5]: markedly increased
